The values below come from PubChem BioAssay (NCI).

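1) Cells in 96-well plates. 2) Compound, 48 h, 5 concentrations. 3) Linear interpolation between surrounding doses. 4) Unreached endpoint = highest concentration. The concentration for 50% growth inhibition is given as GI50. The concentration for full growth arrest is given as TGI.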

What all share (test): NCI anticancer screen, dose series, 48 h
Assay [1] relates to A549 NSCLC.
The subject of assay [2] is OVCAR-3 ovarian.
The test system of assay [3] is UACC-257 melanoma.
Assay [4] concerns PC-3 prostate.
Assay [5] deals with IGROV1 ovarian.
The subject of assay [6] is U251 CNS.
Assay [7] has as its system NCI/ADR-RES ovarian.
The test system of assay [8] is SNB-19 CNS.

As to `CCOc1cc(C=O)c2c(ccc3ccc(OC)c(OC)c32)c1OC`, the TGI in assay [1], in assay [2], in assay [3], in assay [4], in assay [5] and in assay [6] was over 100 µM in each case. Moreover, the TGI in assay [7] was 81.5 µM; in assay [8], over 100 µM.

With `CCc1ccc(CCC(=O)Nc2ncc(Cc3cc(Cl)ccc3Cl)s2)o1`, the GI50 is 2.14 µM in assay [1]; 1.33 µM in assay [2]; 1.49 µM in assay [4]; 1.69 µM in assay [5]; 1.61 µM in assay [6]; 1.6 µM in assay [7]. Also, the GI50 in assay [8] is 1.87 µM. In addition, the TGI is over 50 µM in assay [1]; 4.76 µM in assay [2]; over 50 µM in assay [4]; over 50 µM in assay [5]; 11.7 µM in assay [6]; over 50 µM in assay [7]. The compound also registered a TGI in assay [8] of 12.4 µM.

For `CCOC(=O)C1=C(N)Oc2c(sc3c(C)cccc23)C1c1ccc(Cl)cc1` (centres undefined), the GI50 in assay [1] is 3.9 µM; in assay [2], 2.69 µM; in assay [3] it was 13.1 µM; in assay [4], 2.53 µM; in assay [5] it was 0.962 µM; in assay [6], 3.46 µM. For the same compound, the figures for the GI50 in assay [7] and in assay [8] were 0.952 µM and 3.71 µM, respectively. Moreover, the TGI in assay [1] came to 18.8 µM; in assay [2], 9.61 µM; in assay [3] it was 30.4 µM; in assay [4] it was 13.5 µM; in assay [5], 15.4 µM; in assay [6] it was 14.8 µM. Further, the TGI in assay [7] was determined as 7.18 µM; in assay [8] it was 16 µM.

In the case of `COc1cc(C(=O)NC2CCN(C)CC2)ccc1Nc1ncc2c(n1)N(C1CCCC1)CC(F)(F)C(=O)N2C`, the GI50 in assay [1] is under 0.0193 µM; in assay [2], under 0.01 µM; in assay [3] it was 0.222 µM; in assay [4], under 0.0249 µM; in assay [6], under 0.01 µM; in assay [7], 0.964 µM. In addition, in assay [8], the GI50 is 0.0375 µM. In addition, the TGI is 4.38 µM in assay [1]; 3.9 µM in assay [2]; 6.61 µM in assay [3]; 21.4 µM in assay [4]; 16.8 µM in assay [5]; 12.9 µM in assay [6]. Moreover, the values for the TGI in assay [7] and in assay [8] were 15.7 µM and 16.8 µM, respectively.

As for `O=C(Nc1ncc(Cc2ccccc2)s1)c1ccc2c(c1)OCCO2`, the GI50 in assay [1] is 0.0616 µM; in assay [2], 0.0336 µM; in assay [3], 3.87 µM; in assay [4], 0.0424 µM; in assay [5], 0.0761 µM; in assay [6], 0.0418 µM. The GI50 is 0.0395 µM in assay [7] and 0.0549 µM in assay [8]. Besides, the TGI was over 100 µM in assay [1]; 1.01 µM in assay [2]; over 100 µM in assay [3]; over 100 µM in assay [4]; over 100 µM in assay [5]; over 100 µM in assay [6]. Also, the TGI in assay [7] was over 100 µM; in assay [8], over 38 µM.

Take `O=C(c1ccccc1)c1ccc(Cl)c([N+](=O)[O-])c1`: the GI50 in assay [1] is 16.3 µM; in assay [2], 3.83 µM; in assay [3], 6.26 µM; in assay [4] it was 8.22 µM; in assay [5], 7.92 µM; in assay [6], 7.35 µM. In addition, the GI50 in assay [7] is 21.3 µM; in assay [8], 16 µM. Also, the TGI was 40.5 µM in assay [1]; 12.7 µM in assay [2]; 21.6 µM in assay [3]; 29.8 µM in assay [4]; 23.9 µM in assay [5]; 20.3 µM in assay [6]. Moreover, the figures for the TGI in assay [7] and in assay [8] were 58.3 µM and 30.2 µM, respectively.

For `O=C(c1ccccn1)c1nnn2ccccc12`, the TGI in assay [1], in assay [2], in assay [3], in assay [4], in assay [5] and in assay [6] was over 100 µM in each case. Besides, the TGI in assay [8] is over 100 µM.

Consider `CC1(C)CC[C@]2(C(=O)n3ccnc3)CC[C@]3(C)[C@H](C(=O)C=C4[C@@]5(C)C=C(C#N)C(=O)C(C)(C)[C@@H]5CC[C@]43C)[C@@H]2C1`, for which the GI50 in assay [1] was under 0.0214 µM; in assay [2] it was under 0.01 µM; in assay [3], 0.0719 µM; in assay [4] it was under 0.0142 µM; in assay [5], under 0.0106 µM; in assay [6], under 0.01 µM. The GI50 in assay [7] was under 0.01 µM. Further, the TGI was 0.0994 µM in assay [2]; 0.0655 µM in assay [4]; under 0.0292 µM in assay [5]; 0.0281 µM in assay [6]; 0.0895 µM in assay [7].

With `COC1OCC(OS(=O)(=O)c2ccc(C)cc2)C(OC(=O)c2ccccc2)C1OC(=O)c1ccccc1` (centres undefined), the GI50 in assay [1] is 6.14 µM; in assay [2], 2.95 µM; in assay [4], 9.01 µM; in assay [5], 6.4 µM; in assay [6] it was 4.72 µM; in assay [7], 3.64 µM. Also, the GI50 in assay [8] is 9.97 µM. In addition, the TGI was over 100 µM in assay [1]; 61.7 µM in assay [2]; over 100 µM in assay [4]; over 100 µM in assay [5]; over 100 µM in assay [6]; over 100 µM in assay [7]. The compound also registered a TGI in assay [8] of over 100 µM.

`Cc1cc(Cl)ccc1NC(=O)/C(Cl)=C(/Cl)C(=O)O`: the TGI in assay [1] is over 100 µM; in assay [2] it was 36.8 µM; in assay [3], 36.1 µM; in assay [4], 54.5 µM; in assay [6] it was 38.3 µM; in assay [7], 74.2 µM. The compound further had a TGI in assay [8] of over 100 µM.

As for `COc1ccc(-c2cn(-c3ccc(Cl)cc3)c(=S)[nH]2)cc1OC`, the GI50 in assay [1] was 66.4 µM; in assay [2] it was 47.2 µM; in assay [3], over 100 µM; in assay [4] it was 65.5 µM; in assay [5] it was 7.08 µM; in assay [6] it was 12.3 µM. Also, the GI50 in assay [7] is 5.3 µM. Moreover, the TGI in assay [1], in assay [2], in assay [3], in assay [4], in assay [5] and in assay [6] was over 100 µM in each case. In assay [7], this compound came in with a TGI of over 100 µM.
